Data reported in article PMC3139667, “A Screen against Leishmania Intracellular Amastigotes: Comparison to a Promastigote Screen and Identification of a Host Cell-Specific Hit” (PLoS Neglected Tropical Diseases, 2011).
Read-outs that look alike come from different tables or passages of the source.

Legend:
[1] = tested on: L. donovani promastigotes; experiment: Promastigote high-throughput ATP-bioluminescence assay; type: cell-based, Leishmania donovani; details: read-out: GI50 Promastigote
Procedure: L. donovani promastigotes from an exponentially growing culture were diluted to 10^6/ml in RPMI containing 10% FBS and 10% BHT. The diluted culture (99 µl/well) was dispensed in sterile 96-well flat white opaque assay plates (Greiner Bio-One) using a WellMate multichannel dispenser (Matrix). 1 µl of 1 mM test compound dissolved in DMSO was added to the plates for a final concentration of 10 µM compound and 1% DMSO. Amphotericin B was added as a positive control (final concentration 2 µM, 1% DMSO) and as a negative control, 1 µl DMSO was added (1% final concentration). Compounds and controls were added to the assay plate with the robotic dispenser Biomek FXp liquid handler (Beckman Coulter). Promastigotes were incubated with the compounds for 72 h at 27°C. The parasites were then lysed by adding 50 µl of CellTiter-Glo (Promega) and placed on an orbital shaker for 5 min at room temperature. After lysis, the resulting ATP-bioluminescence was measured using the Analyst HT plate reader (Molecular Devices). Percentage inhibition of parasite growth was calculated for each well as [1-(RLUx-RLU^+)/(RLU^--RLU^+)]*100 where RLUx, RLU^+ and RLU^- are respectively the Relative Light Units for each well, positive (amphotericin B) and negative (DMSO) controls. A screening window coefficient, denoted Z' factor, was used to evaluate the performance of the assay. The Z' factor, calculated as 1-(3σc++3σc−)/(µc+−µc−) where σc+, σc−, µc+ and µc− are respectively the standard deviation and mean values of positive and negative controls, is reflective of the assay signal dynamic range and the data variation associated with signal measurement. […] GI50 curve fitting was carried out using GraphPad Prism 4 Software (GraphPad Software Inc., San Diego, CA).

[2] = tested on: L. donovani intracellular amastigotes; experiment: Intracellular amastigote high-throughput image-based assay in infected THP-1 macrophages; type: cell-based, Leishmania donovani; details: for GI50: read-out: GI50 Intracellular amastigote
Procedure: (§1) Sterile, black, 96-well, clear bottom plates (Greiner Bio-One) were seeded with exponentially growing THP-1 (5×10^5cells/ml). THP-1 were treated with 0.1 µM phorbol myristate acetate (PMA, Sigma) at 37°C for 48 h to achieve differentiation into adherent, non-dividing macrophages. Maturation of THP-1 cells towards monocyte-macrophage like cells is essential to avoid parasitized cells being overgrown by replicating cells. After activation by PMA, cells were washed and incubated with complete RPMI medium containing stationary phase L. donovani promastigotes at a macrophage/promastigote ratio of 1/15. After 4 h incubation at 37°C, non-internalized promastigotes were removed by 2–3 successive washes with RPMI containing 5% FBS and 5% horse serum. Test compounds (10 µM), positive control (2 µM amphotericin B) or negative control (1% DMSO) were then added to the cultures using a Biomek FXp liquid handler (Beckman Coulter). Cultures were incubated at 37°C for 72 h. Cells were then washed with phosphate-buffered saline (PBS), fixed for 30 minutes with 4% formaldehyde, rinsed again with PBS, stained for 2 h with 4′,6′-diamidino-2-phenylindole (DAPI 300 nM) and finally washed with PBS. […] Images were acquired with an INCell Analyzer 1000 automated epi-fluorescent microscope (G.E. Healthcare). The excitation and emission filters used to detect DAPI were 350/50 nm and 460/40 nm respectively. Eight image fields were acquired per well with a 20X objective. The proprietary INCell Developer Toolbox 1.7 software was used for image analysis. Segmentation parameters were set to identify host nuclei with a minimum area of 250 µm^2 and parasite kinetoplast with an average area of 1 µm^2. The intensity of parasite nucleus was too low to be detected with a 20X objective. A border, representing the boundary of the cell, was drawn around the nucleus (total area between 700 and 2000 µm^2). Only parasites found within this area were included in the calculation to eliminate extracellular parasites. False positive parasite detection in the nucleus was also excluded from the calculation. Host cell nuclei and parasite kinetoplasts were counted and the ratio of parasites DNA to host nuclei was selected as the measurement output. Percentage inhibition of parasite growth was calculated as [1-(P/hcx-P/hc^+)/(P/hc^−-P/hc^+)]*100 where P/hcx, P/hc^+ and P/hc^− are parasite per host cell ratio for every well, positive control (amphotericin B) and negative control (DMSO) respectively. Calculation of Z' factor and GI50 curve fitting were carried out as described above.

THP-1 = experiment: Host cell toxicity: THP-1 host nuclei counts in the image-based assay; details: for GI50: read-out: GI50 THP-1; for Selectivity: ratio between parasite GI50 and THP-1 GI50
Procedure: as §1

[3] = tested on: L. donovani axenic amastigotes; experiment: Dose response study against axenic amastigotes (CellTiter-Glo); type: cell-based, Leishmania donovani; details: read-out: GI50 Axenic amastigote
Procedure: L. donovani axenic amastigotes (5×10^5 cells/ml in axenic amastigote media) were dispensed in sterile 96-well flat white opaque assay plates (Greiner Bio-One) using a WellMate multichannel dispenser (Matrix). […] 1% DMSO and amphotericin B (2 µM, 1% DMSO final concentration) were added as negative and positive controls respectively. Axenic amastigotes were incubated with the compounds for 72 h at 37°C with 5% CO2. Parasite viability was then measured using CellTiter-Glo as described above.

[4] = Leishmania donovani, 72 h at 27°C, CellTiter-Glo
[5] = Leishmania donovani, THP-1, 72 h, L. donovani in THP-1, 72 h, parasites per host cell
[6] = ratio between promastigote GI50 and intracellular amastigote GI50, >2 more active against intracellular amastigote, <0.4 more active against promastigotes
[7] = Leishmania donovani, 72 h at 37°C, CellTiter-Glo
[8] = Leishmania donovani, THP-1, 72 h
[9] = L. donovani in THP-1, 72 h, parasites per host cell
[10] = PMA-differentiated infected THP-1, 72 h, host nuclei count

Compound | GI50 [1, 4] | GI50 [2, 5] | Specificity [2, 6] | GI50 (THP-1; Homo sapiens, THP-1, 72 h) | Selectivity (THP-1) | GI50 [3, 7] | GI50 ([1]; Leishmania donovani, 72 h) | GI50 [2, 8] | GI50 ([3]; Leishmania donovani, 72 h) | GI50 ([1]; 72 h at 27°C, CellTiter-Glo) | GI50 [2, 9] | GI50 (THP-1; [10]) | GI50 ([3]; 72 h at 37°C, CellTiter-Glo) | Specificity [2]
[H]/N=C(\N/C(=N/[H])NCCCCCCNC(=N)NC(=N)Nc1ccc(Cl)cc1)Nc1ccc(Cl)cc1 [Chlorhexidine] | 2.81 µM | 1.79 µM | 1.56 | > 16.5 µM | 9.27 | 4.78 µM | – | – | – | – | – | – | – | –
Cc1cc(C2CCCCC2)n(O)c(=O)c1 [Ciclopirox] | 15.2 µM | 22 µM | 0.69 | 42 µM | 1.90 | > 50 µM | – | – | – | – | – | – | – | –
Clc1ccccc1C(c1ccccc1)(c1ccccc1)n1ccnc1 [Clotrimazole] | 12.9 µM | 1.08 µM | 11.92 | > 16.5 µM | 15.32 | 4.56 µM | – | – | – | – | – | – | – | –
C[C@@H]1C[C@@H]([C@H](O)CC2CC(=O)NC(=O)C2)C(=O)[C@@H](C)C1 [Cycloheximide] | – | – | 2.55 | 21 µM | 18.13 | – | 2.95 µM | 1.15 µM | 0.39 µM | – | – | – | – | –
COc1cc2nc(N3CCN(C(=O)C4COc5ccccc5O4)CC3)nc(N)c2cc1OC (stereo not drawn) [Doxazocin] | – | – | 1.69 | – | 3.32 | – | – | – | – | 8.45 µM | 5 µM | > 16.5 µM | > 16.5 µM | –
CC[C@H]1CN2CCc3cc(OC)c(OC)cc3[C@@H]2C[C@@H]1C[C@H]1NCCc2cc(OC)c(OC)cc21 [Emetine] | 0.03 µM | 0.082 µM | – | 1.28 µM | – | 1.62 µM | – | – | – | – | – | – | – | –
Clc1cc(Cl)c(OCC#CI)cc1Cl [Haloprogin] | 1.05 µM | 6 µM | 0.17 | 20 µM | 19.04 | 0.56 µM | – | – | – | – | – | – | – | –
COC(=O)C[C@](O)(CCC(C)(C)O)C(=O)O[C@@H]1C(OC)=C[C@]23CCCN2CCc2cc4c(cc2[C@H]13)OCO4 [Harringtonin] | – | – | – | – | 0.02 | – | – | – | – | 16.6 µM | 4.89 µM | 0.1 µM | 10.6 µM | 3.39
Oc1c(Cl)cc(Cl)c(Cl)c1Cc1c(O)c(Cl)cc(Cl)c1Cl [Hexachlorophene] | – | – | 3.49 | 16.5 µM | – | – | 15.9 µM | 4.54 µM | 14.8 µM | – | – | – | – | –
CCN(CCCCOC(=O)c1ccc(OC)c(OC)c1)C(C)Cc1ccc(OC)cc1 (stereo not drawn) [Mebeverine] | 6.91 µM | 8.5 µM | 0.81 | > 50 µM | 5.88 | 2.36 µM | – | – | – | – | – | – | – | –
